These results are taken from patent US20220273707A1, “COMPOSITIONS AND METHODS FOR TREATING CANINE PARVOVIRUS INFECTION” (MoxxiTech, LLC, priority 2021, published 2022).

One data set deals with Canine fibroblast cells. Briefly: Viability of canine fibroblast cells in the absence of CPV infection (trypan blue exclusion). Conditions: 1 μM, 72 hours. The protocol:
(§1) Methods: Canine fibroblast cells were cultured in Dulbecco's modified Eagle's medium (DMEM) supplemented with 5% fetal bovine serum, 2 mM L-glutamine, 0.1 mM MEM non-essential amino acids, 1 mM sodium pyruvate, 0.05 mM 2-mercaptoethanol, 10 mM HEPES, 100 units/mL penicillin, and 100 mcg/mL streptomycin, at 38° C. with 5% CO2. Canine parvovirus type 2 (CPV2) was isolated from a fecal sample collected from a naturally infected dog. The virus was propagated on canine fibroblast cells and a titer of 10^13.37 tissue culture infectious doses (TCID50)/mL was used for viability assays. For viability assays, cells were routinely passaged and seeded in 96 well plates at 5×10^4 cells/mL in 200 μL complete DMEM media and incubated overnight at 38° C. with 5% CO2. The media was then removed and cells were infected with CPV2 for 1 hour at 38° C. with 5% CO2. […] A minimum of 3 independent experiments were performed for each assay.
Data shown are Mean±SEM, pooled from three independent experiments.

In data set [1] the test system is Canine parvovirus type 2 (CPV2). Briefly: Viability assay of canine fibroblast cells infected with CPV2 (trypan blue exclusion). Type of data set: cell-based. Conditions: 72 hours post treatment; for cell viability after infection with CPV: added 1 hour after CPV2 infection. On the procedure: as §1
72 hours post treatment, cells were assayed for viability. […] Data shown are Mean±SEM, pooled from three independent experiments.

Another data set has as its system Canine parvovirus (CPV). As to the kind of experiment: Treatment of puppies naturally infected with CPV, standard veterinary protocol supplemented with oral ferric citrate solution. Conditions: for survival rate: twice daily for up to five days, monitored for 14 days. Type of data set: in vivo, dog. On the procedure:
Puppies presenting with symptoms of CPV infection, including vomiting, diarrhea, hematochezia, lethargy, and depression, were tested for CPV infection using IDEXX Laboratories SNAP® Parvo Test per manufacturer's protocols.

In the case of `CC(=O)N(O)CCCCCNC(=O)CCC(=O)N(O)CCCCCNC(=O)CCC(=O)N(O)CCCCCN` [deferoxamine, reference compound], in the data set on Canine fibroblast cells, the “viability of treated versus untreated cells in the absence of CPV infection” value is given as “no significant difference”. Besides, in data set [1] (1 μM, CPV-infected cells), the “decrease in survival compared to cells infected with CPV” value was determined as 23% and the “decrease in survival compared to the untreated cells” value is 45%.

On to ferric citrate, for which the “cell viability after infection with CPV” value in data set [1] (1 μM) and in data set [1] (10 μM) was “significant increase” in each case. In addition, the survival rate in the data set on Canine parvovirus (CPV) (0.22 mg/kg orally, 1/3) is 33.33%; with Canine parvovirus (CPV) (1.1 mg/kg orally, 2/5), 40%; in the data set on Canine parvovirus (CPV) (2.2 mg/kg (highest concentration) orally, 5/5), 100%. Moreover, the “mortality of the smallest puppies (<5 lbs)” value in the data set with Canine parvovirus (CPV) (0.22 mg/kg, lowest concentration tested) is listed as “not able to prevent mortality”. The “survival from natural infections with CPV with increasing concentrations” value in the data set on Canine parvovirus (CPV) (increasing concentrations of ferric citrate (FIG. 3)) was “increased survival”.
